Measurements from the OPERA property sets (Mansouri et al. 2018).
Converted amounts (≈) assume the structure as drawn.

SMILES	logP	solubility (20 °C) [µM]	solubility (25 °C) [µM]
CCOP(=S)(OCC)SCS(=O)(=O)CC	1.99	2950 (≈ 861 µg/mL)	
CCOP(=S)(OCC)SCS(=O)C(C)(C)C (stereo not given)		3610 (≈ 1100 µg/mL)	
COP(=S)(OC)Oc1cc(Cl)c(Br)cc1Cl		0.82 (≈ 0.3 µg/mL)	
CCOP(=S)(OCC)SCCSCC		59.4 (≈ 16.3 µg/mL)	
CCOP(=O)(OCC)Oc1ccc([N+](=O)[O-])cc1		8720 (≈ 2400 µg/mL)	
CCOP(=S)(OCC)SCCS(=O)(=O)CC		2880 (≈ 883 µg/mL)	
CNC(=O)ON=CC(C)(C)SC			31700 (≈ 6030 µg/mL)
CCOP(=S)(OCC)Oc1ccc(S(C)(=O)=O)cc1		2300 (≈ 746 µg/mL)	
CCOP(=S)(OCC)SCS(=O)CC (stereo not given)		28900 (≈ 8000 µg/mL)	
